These results are taken from US20240190868A1, “SOS1 INHIBITORS” (Acerand Therapeutics (USA) Limited, priority 2022, published 2024).

In this experiment the test system is cellular pERK in NCI-H1975 cells (EGFR/L858R-T790M). The experiment can be described thus: pERK potency assay (In Cell ELISA). The format is cell-based. To be noted: Homo sapiens, 1 h compound incubation. From the text:
The assay measures the ability of a compound to inhibit SOS1 function in cells. SOS1 activates RAS proteins by catalyzing the conversion of RAS GDP to RAS GTP in response to receptor tyrosine kinase activation. Activation of RAS induces a sequence of cellular signaling events that result in increased phosphorylation of ERK at Threonine 202 and Tyrosine 204 (pERK). The procedure (i.e., In Cell ELISA as described below) measures the level of cellular pERK in response to a test compound in NCI-H1975 cells (EGFR/L858R-T790M).
First, NCI-H1975 cells were grown and maintained using media and procedures recommended by the ATCC. A day before compound addition, cells were plated in poly-D-lysine coated 96-well cell culture plates (Corning® BioCoat® Cat #356640) at 25000 cells/well/100 μL and grown overnight in an incubator at 37° C. with 5% CO2. A solution of a test compound was prepared with 3-fold serial dilutions in DMSO having a top concentration of 6 mM. On the day of the assay, 50 μL of a test compound dilution in media was added to each well of cell culture plate with a final compound concentration in the range of 0.001 μM to 20 μM. After addition of the compound, cells were incubated for 1 h at 37° C. with 5% CO2, after which the culture medium was removed. Cells were fixed with 4% formaldehyde in phosphate-buffered saline (PBS) and incubated at RT for 20 min. The plate was washed three times with PBST (PBS with 0.05% Tween®-20), followed by incubation with 100 μL of pre-cooled methanol at −20° C. for 20 min. After incubation, methanol was removed. The plate was again washed with PBST. Cells were then permeabilized with 100 μL/well of 0.1% Triton X-100 in PBS at RT for 20 min and then quenched with a quenching buffer (PBST containing 1% H2O2 and 0.1% sodium azide) for 20 min at RT with gentle shaking. After washing once with PBST, a blocking buffer (250 uL/well, Pierce™ Protein-Free-PBS Blocking Buffer, Cat #37572) was then added to the cells for 1-h incubation at RT, followed by an anti-pERK antibody (cell signaling, 1:1000 dilution in 5% BSA in PBST) incubation overnight at 4° C. and a secondary antibody-HRP (Jackson immunoresearch, 1:3000 dilution in 5% BSA in PBST) incubation at RT for 1 h. PBST wash was carried out after each step three times. Before the addition of a substrate (Advansta ELISABright™), the plate was washed with PBS twice to remove detergent residues. The Cellular pERK level was determined using the microplate reader (Biotek Synergy™ H1) to detect the chemiluminescence signal. IC50 was determined by fitting a 4-parameter sigmoidal concentration-response model.

In the case of `CC(=O)N1CCC(F)(c2cc3/c(=N/[C@H](C)c4cccc(C#N)c4C)nc4n(c3cn2)CCC4)CC1` [Compound 30], the 50% inhibitory concentration (IC50) (commonly the concentration that inhibits the measured activity by half) was below 100 nM.
The figure for `Cc1c([C@@H](C)/N=c2\nc3n(c4cnc(C5(C(F)F)CC5)cc24)CCC3)cccc1C(F)(F)F` [Compound 31, (R,Z)-3-(1-(difluoromethyl)cyclopropyl)-N-(1-(2-methyl-3-(trifluoromethyl)phenyl)ethyl)-8,9-dihydropyrido[4,3-e]pyrrolo[1,2-a]pyrimidin-5(7H)-imine] is below 100 nM; for `CC(=O)N1CC=C(c2cc3/c(=N/[C@H](C)c4cccc(C(F)(F)F)c4C)nc4n(c3cn2)CCO4)CC1` [Compound 32, (R,Z)-1-(4-(5-((1-(2-methyl-3-(trifluoromethyl)phenyl)ethyl)imino)-8,9-dihydro-5H-oxazolo[3,2-a]pyrido[4,3-e]pyrimidin-3-yl)-3,6-dihydropyridin-1(2H)-yl)ethan-1-one] it is below 100 nM; for `CC(=O)N1CCC(F)(c2cc3/c(=N/[C@H](C)c4cccc(C(F)(F)F)c4C)nc4n(c3cn2)CCO4)CC1` [Compound 33, (R,Z)-1-(4-fluoro-4-(5-((1-(2-methyl-3-(trifluoromethyl)phenyl)ethyl)imino)-8,9-dihydro-5H-oxazolo[3,2-a]pyrido[4,3-e]pyrimidin-3-yl)piperidin-1-yl)ethan-1-one] it is below 100 nM.
Under `CC(=O)N1CC=C(c2cc3/c(=N/[C@H](C)c4cccc(C#N)c4C)nc4n(c3cn2)CCO4)CC1` [Compound 34] stands below 100 nM; under `CC(=O)N1CCC(F)(c2cc3/c(=N/[C@H](C)c4cccc(C#N)c4C)nc4n(c3cn2)CCO4)CC1` [Compound 35], below 100 nM.
Consider `Cc1c([C@@H](C)/N=c2\nc(C)n(C)c3ccc(C4=CCOCC4)cc23)cccc1C(F)(F)F` [Compound 36], for which the IC50 is below 100 nM.
With `CC(=O)N1CC=C(c2ccc3c(c2)/c(=N/[C@H](C)c2cccc(C(F)(F)F)c2C)nc(C)n3C)CC1` [Compound 37], the concentration for half-maximal inhibition (IC50) is below 100 nM.
In the case of `Cc1c(C#N)cccc1[C@@H](C)/N=c1\nc(C)n(C)c2ccc(C3=CCOCC3)cc12` [Compound 38], the half-maximal inhibitory concentration (IC50) was below 100 nM.
Under `Cc1c([C@@H](C)/N=c2\nc(C)n(C)c3cnc(C4=CCOCC4)cc23)cccc1C(F)(F)F` [Compound 39] stands below 100 nM.
Take `Cc1c(C#N)cccc1[C@@H](C)/N=c1\nc(C)n(C)c2cnc(C3=CCC(F)(F)CC3)cc12` [Compound 40]: the IC50 was below 100 nM.
As to `Cc1c(C#N)cccc1[C@@H](C)/N=c1\nc(C)n(C)c2cnc(C3=CCOCC3)cc12` [Compound 41], the concentration for half-maximal inhibition (IC50) was below 100 nM.
Regarding `Cc1c([C@@H](C)/N=c2\nc(C)n(C)c3cnc(C4=CCN(S(C)(=O)=O)CC4)cc23)cccc1C(F)(F)F` [Compound 42, (R,Z)-1,2-dimethyl-N-(1-(2-methyl-3-(trifluoromethyl)phenyl)ethyl)-6-(1-(methylsulfonyl)-1,2,3,6-tetrahydropyridin-4-yl)pyrido[3,4-d]pyrimidin-4(1H)-imine], the 50% inhibitory concentration (IC50) was below 100 nM.
`Cc1c([C@@H](C)/N=c2\nc(C)n(C)c3cnc(C4=CCN(C(N)=O)CC4)cc23)cccc1C(F)(F)F` [Compound 43, (R,Z)-4-(1,2-dimethyl-4-((1-(2-methyl-3-(trifluoromethyl)phenyl)ethyl)imino)-1,4-dihydropyrido[3,4-d]pyrimidin-6-yl)-3,6-dihydropyridine-1(2H)-carboxamide]: the half-inhibitory concentration (IC50) was below 100 nM.
Regarding `CC(=O)N1CCC(F)(c2cc3/c(=N/[C@H](C)c4cccc(C(F)(F)F)c4C)nc(C)n(C)c3cn2)C[C@H]1C` (stereo partly drawn) [Compound 45, 1-((2R)-4-((Z)-1,2-dimethyl-4-(((R)-1-(2-methyl-3-(trifluoromethyl)phenyl)ethyl)imino)-1,4-dihydropyrido[3,4-d]pyrimidin-6-yl)-4-fluoro-2-methylpiperidin-1-yl)ethan-1-one], the 50% inhibitory concentration (IC50) was below 100 nM.
In the case of `CC(=O)N1CCC(F)(c2cc3/c(=N/[C@H](C)c4cccc(C(F)(F)F)c4C)nc(C)n(C)c3cn2)CC1(C)C` (stereo partly drawn) [Compound 46, 1-(4-((Z)-1,2-dimethyl-4-(((R)-1-(2-methyl-3-(trifluoromethyl)phenyl)ethyl)-imino)-1,4-dihydropyrido[3,4-d]pyrimidin-6-yl)-4-fluoro-2,2-dimethylpiperidin-1-yl)ethan-1-one], the half-inhibitory concentration (IC50) was below 100 nM.
As for `Cc1c([C@@H](C)/N=c2\nc(C)n(C)c3cnc(-c4ccn5c(C(F)(F)F)ncc5c4)cc23)cccc1C(F)(F)F` [Compound 47, (R,Z)-1,2-dimethyl-N-(1-(2-methyl-3-(trifluoromethyl)phenyl)ethyl)-6-(3-(trifluoromethyl)imidazo[1,5-a]pyridin-7-yl)pyrido[3,4-d]pyrimidin-4(1H)-imine], the concentration for half-maximal inhibition (IC50) was below 100 nM.
Under `Cc1c([C@@H](C)/N=c2\nc(C)n(C)c3cnc(N4CCC(F)(F)CC4)cc23)cccc1C(F)(F)F` [Compound 48, (R,Z)-6-(4,4-difluoropiperidin-1-yl)-1,2-dimethyl-N-(1-(2-methyl-3-(trifluoromethyl)phenyl)ethyl)pyrido[3,4-d]pyrimidin-4(1H)-imine] stands below 100 nM; under `CC(=O)N1CCN(c2cc3/c(=N/[C@H](C)c4cccc(C(F)(F)F)c4C)nc(C)n(C)c3cn2)CC1` [Compound 49], below 100 nM.
As for `Cc1c([C@@H](C)/N=c2\nc(C)n(C)c3cnc(N4CCC5(CC5)C4)cc23)cccc1C(F)(F)F` [Compound 50], the IC50 was below 100 nM.
As to `Cc1c([C@@H](C)/N=c2\nc(C)n(C)c3cnc(N4CCC5(CC4)CC5)cc23)cccc1C(F)(F)F` [Compound 51], the IC50 is below 100 nM.
The figure for `Cc1c([C@@H](C)/N=c2\nc(C)n(C)c3cnc(N4CCO[C@H](C)C4)cc23)cccc1C(F)(F)F` [Compound 52] is below 100 nM; for `CC(=O)N1CCN(c2cnc3c(c2)/c(=N/[C@H](C)c2cccc(C(F)(F)F)c2C)nc(C)n3C)CC1` [Compound 53] it is below 100 nM; for `Cc1c(C#N)cccc1[C@@H](C)/N=c1\nc(C)n(C)c2cnc(N3CCOCC3)cc12` [Compound 54, (R,Z)-3-(1-((1,2-dimethyl-6-morpholinopyrido[3,4-d]pyrimidin-4(1H)-ylidene)amino)ethyl)-2-methylbenzonitrile] it is below 100 nM.
Under `Cc1c([C@@H](C)/N=c2\nc(C)n(C)c3cnc(N4CCOCC4)cc23)cccc1C(F)(F)F` [Compound 55] stands below 100 nM; under `CC(=O)N1CCN(c2cc3/c(=N/[C@H](C)c4cccc(C#N)c4C)nc(C)n(C)c3cn2)CC1` [Compound 56], below 100 nM.
Turning to `Cc1c(C#N)cccc1[C@@H](C)/N=c1\nc(C)n(C)c2cnc(N3CCCC3)cc12` [Compound 57], the IC50 was below 100 nM.
Under `Cc1c(C#N)cccc1[C@@H](C)/N=c1\nc(C)n(C)c2cnc(N3CCC(F)(F)CC3)cc12` [Compound 59] stands below 100 nM; under `Cc1c(C#N)cccc1[C@@H](C)/N=c1\nc(C)n(C)c2cnc(N3CCC4(CC3)CC4)cc12` [Compound 60], below 100 nM; under `Cc1c(C#N)cccc1[C@@H](C)/N=c1\nc(C)n(C)c2cnc(N3CCO[C@H](C)C3)cc12` [Compound 61], below 100 nM.
For the compound `Cc1c([C@@H](C)/N=c2\nc(C)n(C)c3cnc(N4CCC(F)(F)C4)cc23)cccc1C(F)(F)F` [Compound 62], the concentration for half-maximal inhibition (IC50) was below 100 nM.
On to `Cc1c(C#N)cccc1[C@@H](C)/N=c1\nc(C)n(C)c2cnc(N3CCCCC3)cc12` [Compound 64], for which the IC50 was below 100 nM.
Under `Cc1c(C#N)cccc1[C@@H](C)/N=c1\nc(C)n(C)c2cnc(N3CCC4(CC4)C3)cc12` [Compound 65] stands below 100 nM.
As to `Cc1c(C#N)cccc1[C@@H](C)/N=c1\nc(C)n(C)c2cnc(N3CCC(F)(F)C3)cc12` [Compound 66], the half-inhibitory concentration (IC50) is below 100 nM.
The figure for `Cc1c(C#N)cccc1[C@@H](C)/N=c1\nc(C)n(C)c2cnc(N3CCC(C)(O)CC3)cc12` [Compound 67] is below 100 nM; for `CC(=O)N1CCN(c2cc3/c(=N/[C@H](C)c4cccc(C(F)(F)F)c4C)nc(C)n(C)c3cn2)C(=O)C1` [Compound 68] it is below 100 nM; for `Cc1c(C#N)cccc1[C@@H](C)/N=c1\nc(C)n(C)c2cnc(N3CC(F)C3)cc12` [Compound 69] it is below 100 nM.
Regarding `Cc1c(C#N)cccc1[C@@H](C)/N=c1\nc(C)n(C)c2cnc(N3CCC3)cc12` [Compound 71], the 50% inhibitory concentration (IC50) was below 100 nM.
